Values of other authors in publication PMC12451523 (RSC Advances, 2025).

Molecular target: fungal tyrosinase
Conditions: read-out: IC50 (μM) ± S.E., standard inhibitors, ref [50]

## O=C1O[C@H]([C@@H](O)CO)C(O)=C1O [Ascorbic acid]
  IC50: 11.5 ± 1 µM

## O=c1cc(CO)occ1O [Kojic acid]
  IC50: 30.3 ± 1 µM
